The source of these data is patent publication US7718377B2, “Insulin resistance curative and method of screening the same” (Kyoto Pharmaceutical Industries, Ltd., priority 2003, dated 2010).

The target of one series is T1, human PTP-1B (1-321) (Homo sapiens, UniProt P18031).
T1 construct: ID No.2; made in house; host or cells: Escherichia coli BL21 DE3 (plasmid pET-hPTP1B (1-321), vector pET-11c)
T1 sequence (P18031 1-321): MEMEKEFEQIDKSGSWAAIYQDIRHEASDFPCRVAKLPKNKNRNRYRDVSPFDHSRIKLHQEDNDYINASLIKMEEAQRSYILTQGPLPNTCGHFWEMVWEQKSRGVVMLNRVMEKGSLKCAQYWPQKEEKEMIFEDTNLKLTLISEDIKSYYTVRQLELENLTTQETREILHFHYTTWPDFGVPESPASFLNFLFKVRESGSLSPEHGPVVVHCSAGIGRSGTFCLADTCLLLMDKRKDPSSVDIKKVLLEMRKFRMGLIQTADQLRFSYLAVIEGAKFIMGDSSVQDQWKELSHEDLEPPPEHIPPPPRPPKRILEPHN
The series is described as follows: Determination of PTP-1B enzyme inhibitory activity (phosphopeptide substrate, malachite green). The series is classed as biochemical. To be noted: each compound 100 μM; peptide substrate, 37° C., 10 min. The source says:
As the substrates for PTP-1B enzyme reaction, synthetic peptides consisting of the following amino acid sequence: • Thr-Arg-Asp-Ile-Tyr (PO4)-Glu-Thr-Asp-Tyr (PO4)-Tyr (PO4)-Arg-Lys (SEQ; NO. 5), wherein 3 tyrosines had been all phosphorylated, were used (synthesis committed to Shimadzu Scientific Research Inc. (Chiyoda-ku, Tokyo)). [According to the amino acid numbers based on the report of Ullrich et al. (Nature, vol. 313, pages 756-761, 1985), this amino acid sequence corresponds to Nos. 1142-1153 of insulin receptor, and corresponds to Nos. 1169-1180 in the amino acid sequence of the insulin receptor precursor registered in Genbank No. X02160.]
This peptide substrate and a PTP-1B enzyme were reacted and the enzyme activity was determined by quantitation of inorganic phosphoric acid released from the substrate by the reaction. The decreased enzyme activity in the presence of a test compound during the enzyme reaction was taken as the enzyme inhibitory activity. Specifically, the following method was performed.
A peptide substrate (synthesis committed to Shimadzu Scientific Research Inc.) was dissolved in a buffer (20 mM imidazole (pH 7.0), 50 mM NaCl, 5 mM DTT and 2.5 mM EDTA) to 300 μM, and cryopreserved.
The PTP-1B solution obtained earlier was diluted with a buffer (20 mM imidazole (pH 7.0), 50 mM NaCl, 5 mM DTT, 2.5 mM EDTA, and 0.05% Nonidet P-40) to 200 ng/ml.
A 96 well microtiter plate [Costar 3695 (half area) Corning] was used and a buffer [39 μl, 20 mM imidazole (pH 7.0), 50 mM NaCl, 5 mM DTT, 2.5 mM EDTA], a PTP-1B enzyme solution (5 μl), and a solution (5 mM, 1 μl) of a test compound in dimethylsulfoxide (DMSO) were added to each well. As a control, solvent (DMSO, 1 μl) was added instead of the DMSO solution of test compound. After preincubation at 37° C. for about 10 min, a peptide substrate solution (300 μM, […]) was added and the mixture was incubated at 37° C. for 10 min.
For quantitation of released inorganic phosphoric acid, malachite green solution (90 μl, manufactured by BIOMOL Research Laboratories, Inc.) was added to each well, and the mixture was left standing at room temperature for about 10 min and the absorbance at 650 nm was measured with a microplate reader. Linearity was mostly observed between the absorbance and the phosphoric acid concentration generally within the absorbance range of from 0.05 to 0.6 (phosphoric acid from about […]) under these conditions.
The PTP-1B inhibitory activity of the test compound was obtained by the following calculation formula. Inhibitory activity (%)=[…]

The target of series [1] is T2, GAL4-PPARγ chimeric receptor (human PPARγ ligand binding site) (Homo sapiens, UniProt P37231).
T2 construct: a GAL4-PPARγ chimeric receptor containing amino acid Nos. 1-147 of yeast transcription factor GAL4 on the amino terminal and Nos. 175-475; expressed in transfected cells; host or cells: HEK293 (plasmid pM-PPARγ co-transfected with reporter pFR-Luc)
T2 sequence (P37231 with tags, fused parts or gaps): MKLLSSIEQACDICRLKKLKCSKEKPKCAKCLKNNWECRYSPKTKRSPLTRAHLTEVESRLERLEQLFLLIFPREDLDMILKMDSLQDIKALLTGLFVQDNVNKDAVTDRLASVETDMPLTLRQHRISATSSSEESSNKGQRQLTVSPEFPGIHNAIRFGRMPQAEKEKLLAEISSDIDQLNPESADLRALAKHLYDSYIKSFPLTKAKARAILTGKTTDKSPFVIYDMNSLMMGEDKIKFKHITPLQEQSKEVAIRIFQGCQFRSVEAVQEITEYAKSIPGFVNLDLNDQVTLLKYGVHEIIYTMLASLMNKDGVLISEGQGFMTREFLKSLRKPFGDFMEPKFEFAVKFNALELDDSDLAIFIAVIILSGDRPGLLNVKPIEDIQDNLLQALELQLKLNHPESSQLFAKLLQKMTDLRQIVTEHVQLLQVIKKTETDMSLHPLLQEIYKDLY
Kind of series: Determination of PPARγ activation ability (GAL4-PPARγ luciferase reporter assay in HEK293 cells). The series is classed as cell-based. To be noted: each compound 1 μM; amount of luminescence relative to control; value greater than 1 = activation ability. (Reporter assays use an easily measured gene product as a stand-in for the process of interest.)
Experimental: As a method for determining the ability of a compound to activate PPARγ (hereinafter PPARγ activation ability), a test by a reporter assay was performed with reference to the report of Kliewer et al. (Journal of Biological Chemistry, 1995, vol. 270(22), p. 12953-12956).
With reference to the report of Kliewer, a gene expressing a GAL4-PPARγ receptor, wherein human PPARγ ligand binding site (corresponding to about 300 amino acids on carboxy terminal) is bound with a DNA binding site (corresponding to 147 amino acids on amino terminal region) of yeast transcription factor GAL4, was prepared.
The plasmid pM-PPARγ obtained earlier, and plasmid pFR-Luc purchased from [sequence] CLONING SYSTEMS were each dissolved in desalted water to a concentration of 1 mg/1 ml.
A human fetal kidney-derived cell line HEK293 (American Type Culture Collection CRL-1573) was sown in a 75 cm^2 culture flask, and cultured in Dulbecco's Modified Eagle medium containing 10% fetal bovine serum (hereinafter a medium) under the conditions of 37° C., 5% CO2 until it reached nearly 80% confluent.
Using 7.5 μg of plasmid pM-PPARγ and 7.5 μg of plasmid pFR-Luc, both per flask, as well as a FuGENE6 transfection reagent (manufactured by Rosch Diagnostics) the plasmids were transfected to HEK293 cells and cultured overnight.
The next day, the cells were treated with trypsin and recovered. A 96 well plate coated with poly-L-lysine (IWAKI poly-L-lysine coated 96 well plate, manufactured by ASAHI TECHNOGLASS) was prepared, the cells were sown at about 50,000 cells/well, 90 μl, using the medium and cultured overnight.
The test compound was dissolved in DMSO at a concentration of 10 mM. This was diluted 1,000-fold with the medium, and 10 μl therefrom was added to the well in which cells were growing. The treatment concentration in the cell was 1 μM. After the addition, the cells were cultured overnight.
The next day, the medium was removed, and the cells were washed with phosphate buffered saline containing 1 mM magnesium and 1 mM calcium chloride. PicaGene LT FR manufactured by Wako Pure Chemical Industries, Ltd. was diluted 2-fold with the same saline and the solution was added to each well by 200 μl. After standing the mixture for about 1 hr, it was stirred and 180 μl thereof was taken from each well and placed in a white 96 well plate (OptiPlate 96, manufactured by Packard), applied to TopCount (manufactured by Packard) and the amount of luminescence of each well was measured for 6 seconds.
The PPARγ activation ability of the test compound was determined by the following calculation formula: PPARγ activation ability=(amount of luminescence [in the presence of each compound (1 μM)]}/[amount of luminescence (control)]

The subject of the next series is male Zucker Fatty rats. Kind of series: Expression suppressive action on edema and the like: 2-week oral administration, insulin and blood cell parameters. The series is classed as in vivo, rat. The text has this:
For the test, male Zucker Fatty rats (6-week-old, Japan SLC) were used. During the acclimation period for 1 week and test period, feed (FR-2 (Funabashi Farm)) and water were freely given.
Blood was taken from the tail vain using a heparin-coated hematocrit tube and an EDTA-added hematocrit tube, and a part thereof was preserved as a whole blood and the rest was centrifuged and plasma was collected and subjected to the measurement of biochemical parameter (insulin). For insulin measurement, a rat Insulin RIA kit (US Linco) was used, and all the samples were collectively measured after the completion of administration. The whole blood sample was subjected to the measurement of blood cell parameters (erythrocyte concentration, hemoglobin concentration) using an automatic blood cell measurement apparatus (KX-21N, Sysmex Corporation).
At the beginning of the test, blood was taken from all the rats, and randomly grouped to make the parameters (body weight, erythrocyte, hemoglobin and the like) almost the same. […] The start of the administration was day 0, and the animals were fasted for about 16 hr from the evening of day 13. Blood was taken and measured for each parameter.

Structures are written as SMILES.

With `CC(C)(C)N.CC=CC=CC(=O)N1Cc2cc(OCCc3nc(/C=C/C4CCCC4)oc3C)ccc2C[C@H]1C(=O)O` (stereo in doubt) [Reference Example 22, 7-{2-[2-(trans-2-cyclopentylvinyl)-5-methyloxazol-4-yl]ethoxy}-2-(2,4-hexadienoyl)-1,2,3,4-tetrahydroisoquinoline-(3S)-carboxylic acid tert-butylamine Salt], the “inhibitory activity (%)” value against human PTP-1B (1-321) is 95%. This molecule also gave a PPARγ activation ability in series [1] of 5.1.
For `CC(C)(C)N.CCCCC=CC(=O)N1Cc2cc(OCCc3nc(/C=C/CC(C)C)oc3C)ccc2C[C@H]1C(=O)O` (stereo in doubt) [Reference Example 24, 2-(2-heptenoyl)-7-{2-[5-methyl-2-(4-methyl-trans-1-penten-1-yl)oxazol-4-yl]ethoxy}-1,2,3,4-tetrahydroisoquinoline-(3S)-carboxylic acid tert-butylamine Salt], on human PTP-1B (1-321), the “inhibitory activity (%)” value came out at 92%. Moreover, in series [1], the PPARγ activation ability is on record as 9.4.
As for `CC(C)(C)N.CC=CC=CC(=O)N1Cc2cc(OCCc3nc(/C=C/CCCC)oc3C)ccc2C[C@H]1C(=O)O` (stereo in doubt) [Reference Example 27, 2-(2,4-hexadienoyl)-7-{2-[2-(trans-1-hexen-1-yl)-5-methyloxazol-4-yl]ethoxy}-1,2,3,4-tetrahydroisoquinoline-(3S)-carboxylic acid tert-butylamine Salt], at human PTP-1B (1-321), the “inhibitory activity (%)” value is 88%. In series [1], the PPARγ activation ability was 5.9.
`CC(C)(C)N.CC=CC=CC(=O)N1Cc2cc(OCCc3nc(/C=C/CCC(C)C)oc3C)ccc2C[C@H]1C(=O)O` (stereo in doubt) [Reference Example 30, 2-(2,4-hexadienoyl)-7-{2-[5-methyl-2-(5-methyl-trans-1-hexen-1-yl)oxazol-4-yl]ethoxy}-1,2,3,4-tetrahydroisoquinoline-(3S)-carboxylic acid tert-butylamine Salt]: at human PTP-1B (1-321), the “inhibitory activity (%)” value came out at 96%. Moreover, in series [1], the PPARγ activation ability is given as 6.2. Moreover, the hemoglobin concentration entry in the series on male Zucker Fatty rats (30 mg/kg, po, once-daily, 2 consecutive weeks, FIG. 1) was “somewhat lower than those of the control group, but maintained at a remarkably high level as compared to the rosiglitazone administration group”. The “insulin lowering action (blood insulin concentration)” value in the series on male Zucker Fatty rats (30 mg/kg, po, once-daily, 2 consecutive weeks, FIG. 2) was “equivalent to that of the rosiglitazone”. Besides, the erythrocyte concentration result in the series with male Zucker Fatty rats (30 mg/kg, po, once-daily, 2 consecutive weeks, FIG. 3) is reported as “somewhat lower than those of the control group, but maintained at a remarkably high level as compared to the rosiglitazone administration group”. Further, the “blood dilution (decrease in the concentrations of hemoglobin and erythrocyte)” value with male Zucker Fatty rats (compared with rosiglitazone administration group) was “markedly suppressed”.
With `CC(C)(C)N.CC=CC=CC(=O)N1Cc2cc(OCCc3nc(/C(C)=C/CCC)oc3C)ccc2C[C@H]1C(=O)O` (stereo in doubt) [Reference Example 33, 2-(2,4-hexadienoyl)-7-{2-[5-methyl-2-(1-methyl-trans-1-penten-1-yl)oxazol-4-yl]ethoxy}-1,2,3,4-tetrahydroisoquinoline-(3S)-carboxylic acid tert-butylamine Salt], on human PTP-1B (1-321), the “inhibitory activity (%)” value is recorded as 92%. The same molecule came in with a PPARγ activation ability in series [1] of 6.5.
In the case of `CC(C)(C)N.CC=CC=CC(=O)N1Cc2cc(OCCc3nc(/C=C/C4CCCCC4)oc3C)ccc2C[C@H]1C(=O)O` (stereo in doubt) [Reference Example 40, 7-{2-[2-(trans-2-cyclohexylvinyl)-5-methyloxazol-4-yl]ethoxy}-2-(2,4-hexadienoyl)-1,2,3,4-tetrahydroisoquinoline-(3S)-carboxylic acid tert-butylamine Salt], at human PTP-1B (1-321), the “inhibitory activity (%)” value is 90%. In addition, the PPARγ activation ability in series [1] worked out at 5.4.
For `CC(C)(C)N.CC=CC=CC(=O)N1Cc2cc(OCCc3nc(/C=C/CCCF)oc3C)ccc2C[C@H]1C(=O)O` (stereo in doubt) [Reference Example 66, 7-{2-[2-(5-fluoro-trans-1-penten-1-yl)-5-methyloxazol-4-yl]ethoxy}-2-(2,4-hexadienoyl)-1,2,3,4-tetrahydroisoquinoline-(3S)-carboxylic Acid tert-butylamine Salt] the same measures were 80% and 3.0.
On to `CC(C)(C)N.CC=CC=CC(=O)N1Cc2cc(OCCc3coc(/C(C)=C/CCC)n3)ccc2C[C@H]1C(=O)O` (stereo in doubt) [Reference Example 83, 2-(2,4-hexadienoyl)-7-{2-[2-(1-methyl-trans-1-penten-1-yl)oxazol-4-yl]ethoxy}-1,2,3,4-tetrahydroisoquinoline-(3S)-carboxylic Acid-tert-butylamine Salt], for which, at human PTP-1B (1-321), the “inhibitory activity (%)” value is listed as 82%. For the same molecule, the PPARγ activation ability in series [1] is recorded as 3.1.
By inhibition is commonly meant the percentage by which the read-out fell short of the control. `CN(CCOc1ccc(CC2SC(=O)NC2=O)cc1)c1ccccn1` (stereo not drawn) [Rosiglitazone, reference compound] gave an inhibition at 100 µM against human PTP-1B (1-321) of under 10%.
